According to patent US20240157017A1, “A MEDICAL DRESSING COMPRISING A BACTERIOSTATIC COMPOSITION” (Mölnlycke Health Care AB, priority 2021, published 2024):

Tests used:
[1] = tested on: Pseudomonas aeruginosa (ATCC #15692, PaO1); test: Biofilm attachment to pegs of Calgary biofilm device (Promega BacTiter-GLO luminescence); type: cell-based
Description: (§1) An evaluation of possible bacteriostatic effect of deferiprone (3-6 mM) on the gram-negative bacterium Pseudomonas aeruginosa (ATCC #15692, PaO1) and connection to ability to form biofilm on a plastic surface, using the Calgary biofilm device (CBD) (Journal of Clinical Microbiology, June 1999, p. 1771-1776) was performed. This method utilizes 96-well microplates with lids containing 96 plastic cone shaped protrusions that extend into the wells of the plate. By submerging the plastic cones into bacterial solution, biofilm attachment to the pegs can be studied. Different concentrations of Deferiprone (0, 0.37, 0.75, 1.5, 3, 6 mM) were dissolved in Simulated Wound Fluid (SWF) and added to wells in the CBD plate. PaO1 was then inoculated at a total bacterial concentration of 1×10^6 CFU/ml and the lid was placed on the plate. Following incubation at 35° C. for 24, 48, 72 hrs, bacterial concentration from the wells were calculated using petrifilm and the plastic protrusions were analyzed for biofilm attachment using a luminescence kit that quantifies bacterial viability (Promega BacTiter-GLO).

[2] = tested on: clinical wound isolates of Pseudomonas aeruginosa; test: Effect on clinical wound isolates in SWF; type: cell-based; settings: 3 mM deferiprone in SWF, 24 hrs at 35° C., all isolates tested
Description: Bacteriostatic effect of deferiprone was tested on different clinical wound isolates of Pseudomonas aeruginosa. Isolates were typed according to known virulence factors (FIG. 9a) and subjected for treatment +/−3 mM deferiprone in SWF for 24 hrs at 35° C. Bacterial start concentrations and concentrations after treatment were measured using petrifilm.

PaO1 = test: Growth of planktonic PaO1 at sub-bacteriostatic concentrations in SWF; type: cell-based, Pseudomonas aeruginosa; settings: 1×10^6 CFU/ml, 72 hrs at 35° C.
[3] = tested on: virulence factor pyoverdine; test: Pyoverdine levels in supernatants by LC-MS; type: cell-based, Pseudomonas aeruginosa; settings: 0.03 and 0.3 mM deferiprone in SWF, 72 hrs at 35° C.
Description: In order to evaluate if sub-bacteriostatic concentrations (<3 mM) of deferiprone have an effect on the virulence factor pyoverdine, supernatants of planktonically grown PaO1 (1×10^6 CFU/ml) +/− deferiprone at 0.3 and 0.03 mM in SWF were analyzed by LC-MS for pyoverdine after 72 hrs at 35° C.

[4] = tested on: Pseudomonas aeruginosa (ATCC #15692, PaO1); test: Bacteriostatic effect on planktonic cultures with different bacterial inoculum sizes in SWF; type: cell-based; settings: 3 mM deferiprone in SWF
Description: An evaluation of possible bacteriostatic effect of deferiprone (3 mM) on the gram-negative bacterium Pseudomonas aeruginosa (ATCC #15692, PaO1) and effect of bacterial start concentrations was performed. Deferiprone (3 mM) was dissolved into Simulated Wound Fluid (SWF) (fetal bovine serum (FBS) and Peptone Water (PW) mixed in equal proportions, which correspond to the protein and electrolyte concentration of wound exudates (Emiko Aiba-Kojima, MD et.al Wound Rep Reg (2007) 15 511-520; Trengove, N et al Wound Rep Reg (1996) 4 1067-1927)). Bacterial concentrations ranging from 10−1×10^8 CFU/ml were inoculated into different test tubes +/− Deferiprone (3 mM) in SWF and incubated at 35° C. for 24 hrs before bacterial numbers were determined using petrifilm.

[5] = tested on: Pseudomonas aeruginosa (ATCC #15692, PaO1); test: Bacterial growth in wells of Calgary biofilm device (petrifilm); type: cell-based; settings: inoculum 1×10^6 CFU/ml, 24, 48, 72 hrs
Description: as §1

[6] = tested on: PaO1 in a biofilm phenotype; test: Bacteriostatic effect in collagen (wound-like matrix) gels, bacteria in biofilm phenotype; type: cell-based, Pseudomonas aeruginosa; settings: 3 mM deferiprone, different start concentrations, 24 hrs at 35° C.
Description: Collagen gels were created and inoculated with 1×10^6 CFU/ml PaO1. Gels were incubated for 24 hrs at 35° C. in order to obtain bacteria in biofilm phenotype. New collagen gels +/−3 mM deferiprone were created and different bacterial start concentrations were inoculated into the gels. Following 24 hrs incubation at 35° C., the gels were solubilized and bacterial counts were measured using petrifilm.

Echerschia coli = test: Bacteriostatic effect on other gram-negative species in SWF; type: cell-based; settings: 3 mM deferiprone in SWF, 24 hrs at 35° C.
Description: (§2) The bacteriostatic effect of deferiprone was tested on other gram negative species than Pseudomonas aeruginosa in order to see if the bacteriostatic effect of deferiprone extends to other gram negative species. The following bacteria were tested: Actinobacter baumannii, Echerschia coli, Klebsiella pneumoniae +/−3 mM deferiprone in SWF for 24 hrs at 35° C. Bacterial start concentrations and concentrations after treatment were measured using petrifilm.

Klebsiella pneumoniae = test: as above; type: cell-based; settings: 3 mM deferiprone in SWF, 24 hrs at 35° C.
Description: as §2

Actinobacter baumannii = test: as above; type: cell-based; settings: 3 mM deferiprone in SWF, 24 hrs at 35° C.
Description: as §2

Question: Which “biofilm formation on pegs of CBD plate” value ([1]; 3 mM deferiprone in SWF, 24, 48, 72 hrs) does the source give for Cc1c(O)c(=O)ccn1C [deferiprone] here?
Answer: No biofilm was formed

Question: What about the “biofilm formation on pegs of CBD plate” value ([1]; 6 mM deferiprone in SWF, 24, 48, 72 hrs) of the same molecule?
Answer: No biofilm was formed

Question: And the “biofilm formation on pegs of CBD plate (read-out signal)” value ([1]; all other concentrations (0.37, 0.75, 1.5 mM) of deferiprone in SWF)?
Answer: full growth

Question: What about the “effect on growth of clinical wound isolates” value [2] of the same molecule?
Answer: bacteriostatic effects

Question: And the “effect on growth characteristics of PaO1” value (PaO1; 0.03 mM deferiprone in SWF)?
Answer: does not affect growth characteristics

Question: And the “effect on growth characteristics of PaO1” value (PaO1; 0.3 mM deferiprone in SWF)?
Answer: does not affect growth characteristics

Question: And the “pyoverdine levels in supernatants” value [3]?
Answer: dose-dependent decrease

Question: And the “bacterial concentration after 24 hrs” value ([4]; 35° C., 24 hrs)?
Answer: equals the bacterial start concentration

Question: What about the “effect on growth of PaO1 in planktonic cultures” value ([4]; 35° C., 24 hrs, different start inoculums) of the same molecule?
Answer: true bacteriostatic effect

Question: And the “toxicity to PaO1” value ([4]; different start inoculums)?
Answer: non-toxic

Question: And the “effect on growth of PaO1 in CBD wells” value ([5]; 3 mM deferiprone in SWF)?
Answer: bacteriostatic

Question: What about the “effect on growth of PaO1 in CBD wells” value ([5]; 6 mM deferiprone in SWF) of the same molecule?
Answer: bacteriostatic

Question: What about the “effect on growth of PaO1 in collagen gel” value [6] of the same molecule?
Answer: a bacteriostatic effect is observed

Question: What about the “effect on growth of Echerschia coli” value (Echerschia coli) of the same molecule?
Answer: same bacteriostatic effects

Question: What about the “effect on growth of Klebsiella pneumoniae” value (Klebsiella pneumoniae) of the same molecule?
Answer: sensitive

Question: And the “effect on growth of Actinobacter baumannii” value (Actinobacter baumannii)?
Answer: sensitive
